Assay results reported in patent publication US10738028B2, “Spiro three-membered ring, spiro five-membered ring peptide deformylase inhibitor and use thereof in antibacteria and anti-tumor” (priority 2016, dated 2020).
In brackets after ≈: the same amount, converted by molar mass. Like-named read-outs stand apart in the source and are kept apart here.

Experiments:
[1] = due to instability in metabolism in the body; cited from earlier work
[2] = test system: Enterococcus faecalis (EFA); assay: MIC, two-fold agar dilution (CLSI), clinical isolates; type: cell-based
Method in brief: (§1)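 Susceptibility was tested using CLSI two-fold agar dilution against the strains examined.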

[3] = test system: Escherichia coli (including ESBLs, non-ESBLs); assay: as above; type: cell-based
Method in brief: as §1

[4] = test system: methicillin-resistant Staphylococcus aureus (MRSA); assay: as above; type: cell-based
Method in brief: as §1

[5] = test system: methicillin-resistant Staphylococcus epidermidis (MRSE); assay: as above; type: cell-based
Method in brief: as §1

[6] = test system: methicillin-sensitive Staphylococcus aureus (MSSA); assay: as above; type: cell-based
Method in brief: as §1

[7] = test system: methicillin-sensitive Staphylococcus epidermidis (MSSE); assay: as above; type: cell-based
Method in brief: as §1

[8] = test system: HCT-116 colorectal cancer cell line; assay: CCK-8 proliferation inhibition; type: cell-based; settings: Homo sapiens, HCT-116, 72 h, read-out: HCT116 inhibition rate/%
Method in brief: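 Cells seeded at 2000 cells/well, cultured overnight at 37 °C, 5% CO2, then exposed to compound (DMSO; control 1‰ DMSO) for 72 h in McCoy's 5A with 10% newborn bovine serum. Viability read with 1:10 diluted CCK-8.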

[9] = test system: methemoglobin in blood samples of three healthy volunteers; assay: Toxicity on methemoglobin in vitro (whole blood with S9 and NADPH, absorbance at 630 nm); type: cell-based, human; settings: 500 μM compound; whole blood + S9 + NADPH; 5 hours at 37° C.
Method in brief: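 Fresh EDTA whole blood from three healthy volunteers incubated 5 h at 37 °C with human liver S9 (2 mg/mL), NADPH-generating system and compound at 500 μM final. Lysed in 1% Triton X-100; MetHb % from 630 nm absorbance relative to ferricyanide-oxidized blood.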

the test strains = assay: MIC against the test strains (strain not given); type: cell-based; settings: read-out: MIC (azole amide bioisosteres)
Excerpt: 1. The invention adopts the two-fold agar dilution method recommended by the operating procedure of antimicrobial susceptibility testing set by American Clinical and Laboratory Standards Institute (CLSI) to determine the Minimum Inhibitory Concentration (MIC) of the test samples against the tested strains.

[10] = test system: Enterococcus faecium (EFM); assay: MIC, two-fold agar dilution (CLSI), clinical isolates; type: cell-based
Method in brief: as §1

[11] = test system: Moraxella catarrhalis (BCA); assay: as above; type: cell-based
Method in brief: as §1

[12] = test system: Streptococcus pneoumoniae (SPN); assay: as above; type: cell-based
Method in brief: as §1

[13] = at a high dose; Clin. Pharmacol. Ther. 2011, 90, 256; cited from earlier work
[14] = strain printed MRSA 14-1 (second line of that name, r23, before MRSE 14-2)

CCCCC[C@H](CC(=O)NO)C(=O)N[C@H](C(=O)N1CCC[C@H]1CO)C(C)C [Actinonin]
activity in vivo [1]: no activity in vivo

CCCC[C@H](CN(O)C=O)C(=O)N1CC2(CC2)C[C@H]1c1nnc(-c2ccccn2)o1 [Example 12, N-hydroxy-N—((R)-2-((S)-6-(5-(pyridin-2-yl)-1,3,4-oxadiazol-2-yl)-5-azaspiro[2.4]heptane-5-carbonyl)hexyl)carboxamide]
MIC (anti-bacterial activity) ([2]; strain EFA 14-1): 4 µg/mL (≈ 9.67 µM)
MIC (anti-bacterial activity) ([2]; strain EFA 14-2): 8 µg/mL (≈ 19.3 µM)
MIC (anti-bacterial activity) ([2]; strain EFA 14-3): 8 µg/mL (≈ 19.3 µM)
MIC (anti-bacterial activity) ([2]; strain EFA 14-5): 8 µg/mL (≈ 19.3 µM)
MIC (anti-bacterial activity) ([3]; strain ECO+ 14-1): 0.5 µg/mL (≈ 1.21 µM)
MIC (anti-bacterial activity) ([3]; strain ECO+ 14-2): 64 µg/mL (≈ 155 µM)
MIC (anti-bacterial activity) ([3]; strain ECO− 14-1): 128 µg/mL (≈ 310 µM)
MIC (anti-bacterial activity) ([3]; strain ECO− 14-2): 64 µg/mL (≈ 155 µM)
MIC (anti-bacterial activity) ([4]; strain MRSA 14-1): 4 µg/mL (≈ 9.67 µM)
MIC (anti-bacterial activity) ([4]; strain MRSA 14-2): 4 µg/mL (≈ 9.67 µM)
MIC (anti-bacterial activity) ([4]; strain MRSA 14-4): 4 µg/mL (≈ 9.67 µM)
MIC (anti-bacterial activity) ([4]; strain MRSA 14-5): 2 µg/mL (≈ 4.84 µM)
MIC (anti-bacterial activity) [4, 14]: 1 µg/mL (≈ 2.42 µM)
MIC (anti-bacterial activity) ([5]; strain MRSE 14-2): 0.5 µg/mL (≈ 1.21 µM)
MIC (anti-bacterial activity) ([5]; strain MRSE 14-3): 0.5 µg/mL (≈ 1.21 µM)
MIC (anti-bacterial activity) ([5]; strain MRSE 14-4): 4 µg/mL (≈ 9.67 µM)
MIC (anti-bacterial activity) ([6]; strain MSSA 14-1): 4 µg/mL (≈ 9.67 µM)
MIC (anti-bacterial activity) ([6]; strain MSSA 14-2): 2 µg/mL (≈ 4.84 µM)
MIC (anti-bacterial activity) ([6]; strain MSSA 14-3): 2 µg/mL (≈ 4.84 µM)
MIC (anti-bacterial activity) ([6]; strain MSSA 14-4): 2 µg/mL (≈ 4.84 µM)
MIC (anti-bacterial activity) ([7]; strain MSSE 14-1): 1 µg/mL (≈ 2.42 µM)
MIC (anti-bacterial activity) ([7]; strain MSSE 14-2): 1 µg/mL (≈ 2.42 µM)
MIC (anti-bacterial activity) ([7]; strain MSSE 14-3): 0.5 µg/mL (≈ 1.21 µM)
MIC (anti-bacterial activity) ([7]; strain MSSE 14-4): 1 µg/mL (≈ 2.42 µM)
inhibition at 30 µM ([8]; concentration of 30 μM, 72 hours, CCK-8): 13%
MetHb % (n = 3) [9]: 1.22 ± 0.02%
MIC (the test strains): 0.5 to 2 µg/mL (≈ 1.21 to 4.84 µM)

CCCC[C@H](CN(O)C=O)C(=O)N1CC2(CC2)C[C@H]1c1nnc2ccccn12 [Example 13, N—((R)-2-((S)-6-([1,2,4]triazole[4,3-a]pyridin-3-yl)-5-azaspiro[2.4]heptane-5-carbonyl)hexyl)-N-hydroxyamide]
MIC (anti-bacterial activity) ([2]; strain EFA 14-1): 4 µg/mL (≈ 10.4 µM)
MIC (anti-bacterial activity) ([2]; strain EFA 14-2): 8 µg/mL (≈ 20.8 µM)
MIC (anti-bacterial activity) ([2]; strain EFA 14-3): 8 µg/mL (≈ 20.8 µM)
MIC (anti-bacterial activity) ([2]; strain EFA 14-5): 8 µg/mL (≈ 20.8 µM)
MIC (anti-bacterial activity) ([3]; strain ECO+ 14-1): 2 µg/mL (≈ 5.19 µM)
MIC (anti-bacterial activity) ([3]; strain ECO+ 14-2): 128 µg/mL (≈ 332 µM)
MIC (anti-bacterial activity) ([3]; strain ECO− 14-1): 128 µg/mL (≈ 332 µM)
MIC (anti-bacterial activity) ([3]; strain ECO− 14-2): 128 µg/mL (≈ 332 µM)
MIC (anti-bacterial activity) ([4]; strain MRSA 14-1): 1 µg/mL (≈ 2.59 µM)
MIC (anti-bacterial activity) ([4]; strain MRSA 14-2): 1 µg/mL (≈ 2.59 µM)
MIC (anti-bacterial activity) ([4]; strain MRSA 14-4): 1 µg/mL (≈ 2.59 µM)
MIC (anti-bacterial activity) ([4]; strain MRSA 14-5): 1 µg/mL (≈ 2.59 µM)
MIC (anti-bacterial activity) [4, 14]: 0.5 µg/mL (≈ 1.3 µM)
MIC (anti-bacterial activity) ([5]; strain MRSE 14-2): 0.5 µg/mL (≈ 1.3 µM)
MIC (anti-bacterial activity) ([5]; strain MRSE 14-3): 0.25 µg/mL (≈ 0.649 µM)
MIC (anti-bacterial activity) ([5]; strain MRSE 14-4): 1 µg/mL (≈ 2.59 µM)
MIC (anti-bacterial activity) ([6]; strain MSSA 14-1): 1 µg/mL (≈ 2.59 µM)
MIC (anti-bacterial activity) ([6]; strain MSSA 14-2): 1 µg/mL (≈ 2.59 µM)
MIC (anti-bacterial activity) ([6]; strain MSSA 14-3): 1 µg/mL (≈ 2.59 µM)
MIC (anti-bacterial activity) ([6]; strain MSSA 14-4): 1 µg/mL (≈ 2.59 µM)
MIC (anti-bacterial activity) ([7]; strain MSSE 14-1): 0.25 µg/mL (≈ 0.649 µM)
MIC (anti-bacterial activity) ([7]; strain MSSE 14-2): 0.5 µg/mL (≈ 1.3 µM)
MIC (anti-bacterial activity) ([7]; strain MSSE 14-3): 0.5 µg/mL (≈ 1.3 µM)
MIC (anti-bacterial activity) ([7]; strain MSSE 14-4): 0.5 µg/mL (≈ 1.3 µM)
inhibition at 30 µM [8]: 13%
MetHb % (n = 3) [9]: 1.15 ± 0.06%
MIC (the test strains): 0.5 to 2 µg/mL (≈ 1.3 to 5.19 µM)

CCCC[C@H](CN(O)C=O)C(=O)N1CCC[C@H]1C(=O)Nc1ccc(F)c[n+]1[O-] [LBM415, reference compound]
Anti-bacterial activity (MIC) ([2]; strain EFA 15-1): 2 µg/mL
Anti-bacterial activity (MIC) ([2]; strain EFA 15-2): 2 µg/mL
Anti-bacterial activity (MIC) ([2]; strain EFA 15-3): 2 µg/mL
Anti-bacterial activity (MIC) ([2]; strain EFA 15-4): 2 µg/mL
Anti-bacterial activity (MIC) ([2]; strain EFA 15-5): 2 µg/mL
Anti-bacterial activity (MIC) ([2]; strain EFA 15-6): 128 µg/mL
Anti-bacterial activity (MIC) ([2]; strain EFA 15-9): 128 µg/mL
Anti-bacterial activity (MIC) ([10]; strain EFM 15-1): 2 µg/mL
Anti-bacterial activity (MIC) ([10]; strain EFM 15-2): 2 µg/mL
Anti-bacterial activity (MIC) ([10]; strain EFM 15-3): 4 µg/mL
Anti-bacterial activity (MIC) ([10]; strain EFM 15-4): 8 µg/mL
Anti-bacterial activity (MIC) ([10]; strain EFM 15-5): 4 µg/mL
Anti-bacterial activity (MIC) ([10]; strain EFM 15-6): 4 µg/mL
Anti-bacterial activity (MIC) ([3]; strain ECO+ 15-1): 64 µg/mL
Anti-bacterial activity (MIC) ([3]; strain ECO+ 15-2): 64 µg/mL
Anti-bacterial activity (MIC) ([3]; strain ECO+ 15-3): 64 µg/mL
Anti-bacterial activity (MIC) ([3]; strain ECO+ 15-4): 64 µg/mL
Anti-bacterial activity (MIC) ([3]; strain ECO− 15-1): 64 µg/mL
Anti-bacterial activity (MIC) ([3]; strain ECO− 15-2): 64 µg/mL
Anti-bacterial activity (MIC) ([3]; strain ECO− 15-3): 64 µg/mL
Anti-bacterial activity (MIC) ([3]; strain ECO− 15-4): 64 µg/mL
MIC ([11]; Moraxella catarrhalis, 7 clinical isolates, range over strains, read-out: Moraxella catarrhalis (n = 7) MIC): 0.5 to 2 µg/mL (≈ 1.26 to 5.05 µM)
Anti-bacterial activity (MIC) ([11]; strain BCA 14-1): 2 µg/mL
Anti-bacterial activity (MIC) ([11]; strain BCA 14-4): 2 µg/mL
Anti-bacterial activity (MIC) ([11]; strain BCA 14-5): 1 µg/mL
Anti-bacterial activity (MIC) ([11]; strain BCA 14-6): 2 µg/mL
Anti-bacterial activity (MIC) ([11]; strain BCA 14-7): 0.5 µg/mL
Anti-bacterial activity (MIC) ([11]; strain BCA 14-8): 0.5 µg/mL
Anti-bacterial activity (MIC) ([11]; strain BCA 14-10): 0.5 µg/mL
Anti-bacterial activity (MIC) ([12]; strain SPN 16-2): 2 µg/mL
Anti-bacterial activity (MIC) ([12]; strain SPN 16-4): 2 µg/mL
MIC ([4]; Staphylococcus aureus, MRSA, range over strains, read-out: minimum inhibitory concentration MIC against methicillin-resistant Staphylococcus (MRSA)): 0.5 to 1 µg/mL (≈ 1.26 to 2.52 µM)
Anti-bacterial activity (MIC) ([4]; strain MRSA 15-1): 1 µg/mL
Anti-bacterial activity (MIC) ([4]; strain MRSA 15-2): 1 µg/mL
Anti-bacterial activity (MIC) ([4]; strain MRSA 15-3): 1 µg/mL
Anti-bacterial activity (MIC) ([4]; strain MRSA 15-4): 0.5 µg/mL
Anti-bacterial activity (MIC) ([5]; strain MRSE 15-1): 0.125 µg/mL
Anti-bacterial activity (MIC) ([5]; strain MRSE 15-2): 0.125 µg/mL
Anti-bacterial activity (MIC) ([5]; strain MRSE 15-3): 0.06 µg/mL
Anti-bacterial activity (MIC) ([5]; strain MRSE 15-7): 0.125 µg/mL
Anti-bacterial activity (MIC) ([6]; strain MSSA 15-3): 0.5 µg/mL
Anti-bacterial activity (MIC) ([6]; strain MSSA 15-4): 0.5 µg/mL
Anti-bacterial activity (MIC) ([6]; strain MSSA 15-5): 0.5 µg/mL
Anti-bacterial activity (MIC) ([6]; strain MSSA 15-6): 0.5 µg/mL
Anti-bacterial activity (MIC) ([7]; strain MSSE 15-3): 0.06 µg/mL
Anti-bacterial activity (MIC) ([7]; strain MSSE 15-4): 0.5 µg/mL
Anti-bacterial activity (MIC) ([7]; strain MSSE 15-5): 0.06 µg/mL
Anti-bacterial activity (MIC) ([7]; strain MSSE 15-6): 128 µg/mL
MetHb % (n = 3) [9]: 3.05 ± 0.01%
adverse effect in Phase I clinical trial [13]: could cause methemoglobinemia at a high dose
